According to US11077139B2, “Combination of an arsenic compound and at least one retinoid for treating acute myeloid leukemia” (INSERM (Institut National de la Sante et de la Recherche …, priority 2013, dated 2021):

Tests used:
mutant NPM-1 = assay: Western blot for NPM-1 and mutated NPM-1; type: cell-based
Experimental: Cells were solubilized at 4° C. in lysis buffer. […] Blots were incubated with specific antibodies, washed and proteins were visualized using the ECL chemiluminescence system (Santa Cruz, Germany). The following antibodies were used; monoclonal anti-wt NPM-1 (Abnova, Abcam), polyclonal anti-mutated NPM-1 (Abnova), anti-actin (Santa-cruz, Germany) and anti-GAPDH (Abnova).

[1] = system: OCI-AML3 cells (mutated NPM-1); type: cell-based; conditions: addition of the proteasome inhibitor
Experimental: Cells were seeded at a density of 2×10^5/ml. Primary AML cells (from either peripheral blood or BM) were extracted following ficoll separation and cultured in MEM-α supplemented with 20% FBS and antibiotics. […] Cell growth was assessed using the CellTiter 96® cell proliferation assay kit (Promega Corp., Madison, Wis., USA) or by trypan blue dye assay.
Proliferation experiments on cell lines were repeated at least three times. Data are reported as the mean+/−standard error. […] CI was used to assess synergistic effects (CI<1), additive effects (CI=1) or antagonistic effects (CI>1). Two statistical tests were performed to validate significance: the t-test and the one-way analysis of variance (ANOVA) test. *, ** and *** indicate p values≤0.05; 0.01 and 0.001, respectively. p-values less than 0.05 were considered significant.

Compound	effect on RA/arsenic-induced NPM-1 degradation (mutant NPM-1; addition of the proteasome inhibitor)	effect on RA/arsenic-induced growth arrest [1]	effect of pre-treatment on arsenic-induced degradation of mutant NPM-1 (mutant NPM-1; data not shown)
CC(C)C[C@H](NC(=O)[C@H](Cc1ccccc1)NC(=O)c1cnccn1)B(O)O [PS-341]	reversed	reversed	
interferon alpha			significantly accelerated
